Values quoted from earlier work in patent US10314839B2, “Diversion-resistant opioid formulations” (priority 2014, dated 2019).
Counter-ions that a name gives are not always drawn.

Experiments:
opioid receptor [1] = details: after oral doses
[2] = hydrochloride salt
[3] = test system: mu over delta receptor sub-types
opioid receptor [4] = test system: opioid receptor

SMILES	Duration of action (opioid receptor [1])	Solubility in water [2]	Preferential blocking action between receptor sub-types [3]	Protein binding (in vivo)	Oral bioavailability (oral administration)	Opioid agonist effects / properties (opioid receptor [4])
C[C@H]1[C@H]2Cc3ccc(O)cc3[C@]1(C)CCN2CC1CC1 [cyclazocine]	~24 h	–	–	–	–	–
O=C1CC[C@@]2(O)[C@H]3Cc4ccc(O)c5c4[C@@]2(CCN3CC2CC2)[C@H]1O5 [hydrochloride salt of naltrexone, naltrexone]	–	up to 100 mg/mL	–	–	–	–
O=C1CC[C@@]2(O)[C@H]3Cc4ccc(O)c5c4[C@@]2(CCN3CC2CC2)[C@H]1O5 [naltrexone]	~24 h	–	strong preferential blocking action against mu over delta receptor sub-types	approximately 21%	5-40%	no opioid agonist properties
